In patent US10570122B2, “Compounds with anti-tumoral activity” (AB Science, priority 2015, dated 2020):

Key:
A498 = assay: CellTiter-Blue cell-based survival/proliferation assay, A498; conditions: Homo sapiens; A498 kidney tumor cell line, 48 h
Method in brief: (§1)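 Tenfold compound dilutions (0–10 μM) were added to 1·10^4 cells/well. Plates incubated 48 h at 37 °C. CellTiter-Blue reduction (4 h, 37 °C) was read as fluorescence at 590 nm, background-corrected with a cell-free blank.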

HL60 = assay: CellTiter-Blue cell-based survival/proliferation assay, HL60; conditions: Homo sapiens, HL-60, Leukemia cell line HL60, 48 h, read-out: Anti-tumoral activity (measured IC50) HL60
Method in brief: as §1

TOV112D = assay: CellTiter-Blue cell-based survival/proliferation assay, TOV112D; conditions: Homo sapiens; TOV112D ovary tumor cell line, 48 h
Method in brief: as §1

AGS = assay: CellTiter-Blue cell-based survival/proliferation assay, AGS; conditions: Homo sapiens; AGS stomach tumor cell line, 48 h
Method in brief: as §1

HEPG2 = assay: CellTiter-Blue cell-based survival/proliferation assay, HEPG2; conditions: Homo sapiens; HEPG2 liver tumor cell line, 48 h
Method in brief: as §1

SW579 = assay: CellTiter-Blue cell-based survival/proliferation assay, SW579; conditions: Homo sapiens; SW579 head & neck tumor cell line, 48 h
Method in brief: as §1

MDAMB231 = assay: CellTiter-Blue cell-based survival/proliferation assay, MDAMB231; conditions: Homo sapiens, MDA-MB-231; MDAMB231 breast tumor cell line, 48 h
Method in brief: as §1

[1] = system: panel of about 34 human tumor cell lines; assay: Cell-based proliferation screening on panel of tumor cell lines; conditions: solid tumor cell line, cell line unknown, 48 h, read-out: IC50, solid tumor cell line of column 6 (last section of Table 3)
Method in brief: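 CellTiter-Blue survival assay with 1·10^4 cells/well, each line treated 48 h at 37° C with 1/10 serial dilutions from 0 to 10 μM. Resorufin formed during a 4 h reagent incubation is read by fluorescence at 590 nm. A cell-free blank serves as background.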

HEP2 = assay: CellTiter-Blue cell-based survival/proliferation assay, HEP2; conditions: Homo sapiens, HEp-2; HEP2 head & neck tumor cell line, 48 h
Method in brief: as §1

HGC27 = assay: CellTiter-Blue cell-based survival/proliferation assay, HGC27; conditions: Homo sapiens, HGC-27; HGC27 stomach tumor cell line, 48 h
Method in brief: as §1

OPM2 = assay: CellTiter-Blue cell-based survival/proliferation assay, OPM2; conditions: Homo sapiens, OPM-2, Myeloma cell line OPM2, 48 h, read-out: Anti-tumoral activity (measured IC50) OPM2
Method in brief: as §1

H1299 = assay: CellTiter-Blue cell-based survival/proliferation assay, H1299; conditions: Homo sapiens, NCI-H1299; H1299 lung tumor cell line, 48 h
Method in brief: as §1

MESSA = assay: CellTiter-Blue cell-based survival/proliferation assay, MESSA; conditions: Homo sapiens, MES-SA; MESSA ovary tumor cell line, 48 h
Method in brief: as §1

DU145 = assay: CellTiter-Blue cell-based survival/proliferation assay, DU145; conditions: Homo sapiens, DU-145; DU145 prostate tumor cell line, 48 h
Method in brief: as §1

KARPAS299 = assay: CellTiter-Blue cell-based survival/proliferation assay, KARPAS299; conditions: Homo sapiens, KARPAS-299, Lymphoma cell line KARPAS299, 48 h, read-out: Anti-tumoral activity (measured IC50) KARPAS299
Method in brief: as §1

REC1 = assay: CellTiter-Blue cell-based survival/proliferation assay, REC1; conditions: Homo sapiens, Lymphoma cell line REC1, 48 h, read-out: Anti-tumoral activity (measured IC50) REC1
Method in brief: as §1

HUT78 = assay: CellTiter-Blue cell-based survival/proliferation assay, HUT78; conditions: Homo sapiens, Lymphoma cell line HUT78, 48 h, read-out: Anti-tumoral activity (measured IC50) HUT78
Method in brief: as §1

A549 = assay: CellTiter-Blue cell-based survival/proliferation assay, A549; conditions: Homo sapiens; A549 lung tumor cell line, 48 h
Method in brief: as §1

BXPC3 = assay: CellTiter-Blue cell-based survival/proliferation assay, BXPC3; conditions: Homo sapiens, BXPC-3; BXPC3 pancreas tumor cell line, 48 h
Method in brief: as §1

ACHN = assay: CellTiter-Blue cell-based survival/proliferation assay, ACHN; conditions: Homo sapiens; ACHN kidney tumor cell line, 48 h
Method in brief: as §1

BT20 = assay: CellTiter-Blue cell-based survival/proliferation assay, BT20; conditions: Homo sapiens, BT-20; BT20 breast tumor cell line, 48 h
Method in brief: as §1

PC3 = assay: CellTiter-Blue cell-based survival/proliferation assay, PC3; conditions: Homo sapiens, PC-3; PC3 prostate tumor cell line, 48 h
Method in brief: as §1

PANC1 = assay: CellTiter-Blue cell-based survival/proliferation assay, PANC1; conditions: Homo sapiens, PANC-1; PANC_1 pancreas tumor cell line, 48 h
Method in brief: as §1

PLCPRF5 = assay: CellTiter-Blue cell-based survival/proliferation assay, PLCPRF5; conditions: Homo sapiens, PLC-PRF-5; PLC_PRF5 liver tumor cell line, 48 h
Method in brief: as §1

CLS354 = assay: CellTiter-Blue cell-based survival/proliferation assay, CLS354; conditions: Homo sapiens, CLS-354; CLS354_4 head & neck tumor cell line, 48 h
Method in brief: as §1

CALU6 = assay: CellTiter-Blue cell-based survival/proliferation assay, CALU6; conditions: Homo sapiens, Calu-6; CALU6 lung tumor cell line, 48 h
Method in brief: as §1

DLD1 = assay: CellTiter-Blue cell-based survival/proliferation assay, DLD1; conditions: Homo sapiens, DLD-1; DLD_1 colorectal tumor cell line, 48 h
Method in brief: as §1

HCT116 = assay: CellTiter-Blue cell-based survival/proliferation assay, HCT116; conditions: Homo sapiens, HCT-116; HCT116 colorectal tumor cell line, 48 h
Method in brief: as §1

Row | SMILES | IC50 (A498) [nM] | IC50 (HL60) [nM] | IC50 (TOV112D) [nM] | IC50 (AGS) [nM] | IC50 (HEPG2) [nM] | IC50 (SW579) [nM] | IC50 (MDAMB231) [nM] | IC50 [1] [nM] | IC50 (HEP2) [nM] | IC50 (HGC27) [nM] | IC50 (OPM2) [nM] | IC50 (H1299) [nM] | IC50 (MESSA) [nM] | IC50 (DU145) [nM] | IC50 (KARPAS299) [nM] | IC50 (REC1) [nM] | IC50 (HUT78) [nM] | IC50 (A549) [nM] | IC50 (BXPC3) [nM] | IC50 (ACHN) [nM] | further results
1 | CCOCc1ccc(C)c(Nc2ncc(-c3ccc(-n4cncn4)cc3)o2)c1 [Example 034, (5-Ethoxymethyl-2-methyl-phenyl)-[5-(4-[1,2,4]triazol-1-yl-phenyl)-oxazol-2-yl]-amine] | > 1000 | > 1000 | 500 to 1000 | > 1000 | > 1000 | > 1000 | > 1000 | > 1000 | 500 to 1000 | > 1000 | > 1000 | > 1000 | > 1000 | > 1000 | 100 to 500 | 100 to 500 | 100 to 500 | > 1000 | > 1000 | > 1000 | IC50 (BT20): > 1000 nM; IC50 (PC3): > 1000 nM; IC50 (PANC1): > 1000 nM; IC50 (PLCPRF5): > 1000 nM; IC50 (CLS354): 500 to 1000 nM; IC50 (CALU6): > 1000 nM; IC50 (DLD1): > 1000 nM; IC50 (HCT116): > 1000 nM
2 | CCOCc1ccc(C)c(Nc2ncc(-c3ccc(-n4ccnn4)cc3)o2)c1 [Example 035, (5-Ethoxymethyl-2-methyl-phenyl)-[5-(4-[1,2,3]triazol-1-yl-phenyl)-oxazol-2-yl]-amine] | > 1000 | > 1000 | 500 to 1000 | > 1000 | > 1000 | > 1000 | > 1000 | > 1000 | > 1000 | > 1000 | > 1000 | > 1000 | > 1000 | > 1000 | 500 to 1000 | 500 to 1000 | 500 to 1000 | > 1000 | > 1000 | > 1000 | IC50 (BT20): > 1000 nM; IC50 (PC3): > 1000 nM; IC50 (PANC1): > 1000 nM; IC50 (PLCPRF5): > 1000 nM; IC50 (CLS354): > 1000 nM; IC50 (CALU6): > 1000 nM; IC50 (DLD1): > 1000 nM; IC50 (HCT116): > 1000 nM
3 | CCOCc1ccc(C)c(Nc2ncc(-c3ccc(-n4nccn4)cc3)o2)c1 [Example 036, (5-Ethoxymethyl-2-methyl-phenyl)-[5-(4-[1,2,3]triazol-2-yl-phenyl)-oxazol-2-yl]-amine] | > 1000 | 100 to 500 | ≤ 100 | ≤ 100 | 100 to 500 | > 1000 | > 1000 | 100 to 500 | 100 to 500 | ≤ 100 | 100 to 500 | 500 to 1000 | > 1000 | > 1000 | ≤ 100 | ≤ 100 | ≤ 100 | > 1000 | > 1000 | 100 to 500 | IC50 (BT20): 500 to 1000 nM; IC50 (PC3): 100 to 500 nM; IC50 (PANC1): > 1000 nM; IC50 (PLCPRF5): > 1000 nM; IC50 (CLS354): ≤ 100 nM; IC50 (CALU6): 500 to 1000 nM; IC50 (DLD1): > 1000 nM; IC50 (HCT116): > 1000 nM
4 | CCOCc1ccc(C)c(Nc2ncc(-c3ccc(-c4nccs4)cc3)o2)c1 [Example 038, (5-Ethoxymethyl-2-methyl-phenyl)-[5-(4-thiazol-2-yl-phenyl)-oxazol-2-yl]-amine] | > 1000 | 100 to 500 | > 1000 | > 1000 | > 1000 | > 1000 | > 1000 | 500 to 1000 | 500 to 1000 | > 1000 | 100 to 500 | > 1000 | > 1000 | > 1000 | > 1000 | 100 to 500 | > 1000 | > 1000 | > 1000 | > 1000 | IC50 (BT20): > 1000 nM; IC50 (PC3): > 1000 nM; IC50 (PANC1): > 1000 nM; IC50 (PLCPRF5): > 1000 nM; IC50 (CLS354): > 1000 nM; IC50 (CALU6): > 1000 nM; IC50 (DLD1): > 1000 nM; IC50 (HCT116): > 1000 nM
5 | CCOCc1ccc(C)c(Nc2ncc(-c3ccc(-n4ccc(C)n4)cc3)o2)c1 [Example 039, (5-Ethoxymethyl-2-methyl-phenyl)-{5-[4-(3-methyl-pyrazol-1-yl)-phenyl]-oxazol-2-yl}-amine] | > 1000 | 500 to 1000 | > 1000 | > 1000 | > 1000 | > 1000 | > 1000 | > 1000 | > 1000 | > 1000 | > 1000 | > 1000 | > 1000 | > 1000 | 500 to 1000 | 500 to 1000 | 500 to 1000 | > 1000 | > 1000 | > 1000 | IC50 (BT20): > 1000 nM; IC50 (PC3): > 1000 nM; IC50 (PANC1): > 1000 nM; IC50 (PLCPRF5): > 1000 nM; IC50 (CLS354): > 1000 nM; IC50 (CALU6): > 1000 nM; IC50 (DLD1): > 1000 nM; IC50 (HCT116): > 1000 nM
